Source: patent publication US10538535B2, “Antitumoral compounds” (priority 2017, dated 2020)
Like-named read-outs stand apart in the source and are kept apart here.

Legend:
A549 cells = assay: cells; details: for CC50: read-out: LC50
From the text: (§1) The aim of this assay is to evaluate the in vitro cytostatic (ability to delay or arrest tumor cell growth) or cytotoxic (ability to kill tumor cells) activity of the samples being tested.
(§2) A colorimetric assay, using sulforhodamine B (SRB) reaction has been adapted to provide a quantitative measurement of cell growth and viability (following the technique described by Skehan et al. J. Natl. Cancer Inst. 1990, 82, 1107-1112). Another colorimetric assay based on 3-(4,5-Dimethylthiazol-2-yl)-2,5-diphenyltetrazolium bromide (MTT) reduction to a purple formazan has been also used to assess the antiproliferative activity (following the technique described by Mosmann et al. J. Immunol. Meth. 1983, 65, 55-63).
(§3) These forms of assays employ 96-well cell culture microplates following the standards of the American National Standards Institute and the Society for Laboratory Automation and Screening (ANSI SLAS 1-2004 (R2012) Oct. 12, 2011. All the cell lines used in this study were obtained from the American Type Culture Collection (ATCC) and derive from different types of human cancer.
(§4) A549, HT29, MDA-MB-231 and PSN1 cells were maintained in Dulbecco's Modified Eagle Medium (DMEM) while PC-3 and 22Rv1 cells were maintained in Roswell Park Memorial Institute Medium (RPMI). All cell lines were supplemented with 10% Fetal Bovine Serum (FBS), 2 mM L-glutamine, 100 U/mL penicillin, and 100 […] at 37° C., 5% CO2 and 98% humidity. For the experiments, cells were harvested from subconfluent cultures using trypsinization and resuspended in fresh medium before counting and plating.
(§5) A549, HT29, MDA-MB-231 and PSN1 cells were seeded in 96 well microtiter plates, at 5000 cells per well in aliquots of 150 μL, and allowed to attach to the plate surface for 18 hours (overnight) in drug free medium. After that, one control (untreated) plate of each cell line was fixed (as described below) and used for time zero reference value. Culture plates were then treated with test compounds (50 μL aliquots of 4× stock solutions in complete culture medium plus 4% DMSO) using ten 2/5 serial dilutions (concentrations ranging from 10 to 0.003 μg/mL) and triplicate cultures (1% final concentration in DMSO). After 72 hours treatment, the antitumor effect was measured by using the SRB methodology: Briefly, cells were washed twice with PBS, fixed for 15 min in 1% glutaraldehyde solution at room temperature, rinsed twice in PBS, and stained in 0.4% SRB solution for 30 min at room temperature. Cells were then rinsed several times with 1% acetic acid solution and air-dried at room temperature.
(§6) Effects on cell growth and survival were estimated by applying the NCI algorithm (Boyd M R and Paull K D. Drug Dev. Res. 1995, 34, 91-104). The values obtained in triplicate cultures were fitted by nonlinear regression to a four-parameters logistic curve by nonlinear regression analysis.

HT29 cells = assay: cells; details: for CC50: read-out: LC50
From the text: as §1, §2, §3, §4, §5, §6

PC-3 tumors = details: 12-R 0.05 mg/kg
From the text: In this model, instead of male, female animals were used because PC-3 growth is not hormone dependant.

MDA-MB-231 cells = assay: cells; details: for CC50: read-out: LC50
From the text: as §1, §2, §3, §4, §5, §6

PSN1 cells = assay: cells; details: for CC50: read-out: LC50
From the text: as §1, §2, §3, §4, §5, §6

H526 tumors = assay: In vivo xenograft, human lung (SCLC) H526; details: iv weekly, 47-R 0.1 mg/Kg, Compound D 0.5 mg/Kg
H82 tumors = assay: In vivo xenograft, human lung (SCLC) H82; details: iv weekly, 47-R 0.1 mg/Kg, Compound D 0.5 mg/Kg
Method: Female athymic nu/nu mice (Harlan Laboratories Models, S. L. Barcelona, Spain or Envigo, Spain) were utilized for all experiments. Animal were housed in individually ventilated cages Sealsafe® Plus, Techniplast S.P.A.), up to ten per cage on a 12-hour light-dark cycle at 21-23° C. and 40-60% humidity. Mice were allowed free access to irradiated standard rodent diet (Tecklad 2914C) and sterilized water. Animals were acclimated for at least 5 days prior to tumor implantation with a tumor cell suspension.
H82 cells were grown as a suspension and maintained by addition of fresh medium, as the cell density increases, every 2 to 3 days. Every week, culture was reestablished by centrifugation of the suspension with subsequent resuspension in fresh medium at a concentration of 1×10^5 cell/ml. Animals were subcutaneously implanted (on the right flank using 26 G needle and a 1 cc syringe) at 4-6 weeks of age with 5×10^6 H82 cells, suspended in 0.05 mL of a solution consisting of 50% Matrigel® (Corning Incorporated Life Sciences) and 50% medium without serum or antibiotics.
Treatment tolerability was assessed by monitoring body weight evolution, clinical signs of systemic toxicity, as well as evidences of local damage in the injection site.
In xenograft studies with other cell lines: • Tumor volume was calculated using the equation (a·b^2)/2, where a: length (longest diameter) and b: width (shortest diameter) were measured in mm by using digital caliper (Fowler Sylvac, S235PAT).
Treatments producing >20% lethality and/or 20% net body weight loss were considered toxic.
Tables and figures summarize the data obtained from complete experimental groups, i.e. those groups keeping the initial number of animals, n=8-10.

[1] = MDA-MB-231, 72 hours treatment, SRB

COc1c(C)cc2c(c1O)[C@@H]1[C@@H]3[C@@H]4SC[C@]5(N[C@H](CN)Cc6c5[nH]c5ccccc65)C(=O)OC[C@@H](c5c6c(c(C)c(OC(C)=O)c54)OCO6)N3[C@@H](O)[C@H](C2)N1C [Compound 12-S]
CC50 (A549 cells; Homo sapiens, A549, 72 h): > 128 nM
CC50 (HT29 cells; Homo sapiens, HT-29, 72 h): > 128 nM
Median Tumor Volume (PC-3 tumors; Day 0, iv Days 0, 7 and 14, 12-S […]): 128.0 mm^3
Median Tumor Volume (PC-3 tumors; Day 2, iv Days 0, 7 and 14, 12-S […]): 141.5 mm^3
Median Tumor Volume (PC-3 tumors; Day 4, iv Days 0, 7 and 14, 12-S […]): 143.7 mm^3
Median Tumor Volume (PC-3 tumors; Day 7, iv Days 0, 7 and 14, 12-S […]): 183.9 mm^3
Median Tumor Volume (PC-3 tumors; Day 11, iv Days 0, 7 and 14, 12-S […]): 208.1 mm^3
Median Tumor Volume (PC-3 tumors; Day 14, iv Days 0, 7 and 14, 12-S […]): 270.7 mm^3
Median Tumor Volume (PC-3 tumors; Day 16, iv Days 0, 7 and 14, 12-S […]): 286.3 mm^3
Median Tumor Volume (PC-3 tumors; Day 18, iv Days 0, 7 and 14, 12-S […]): 336.1 mm^3
Median Tumor Volume (PC-3 tumors; Day 21, iv Days 0, 7 and 14, 12-S […]): 357.1 mm^3
Median Tumor Volume (PC-3 tumors; Day 23, iv Days 0, 7 and 14, 12-S […]): 400.8 mm^3
Median Tumor Volume (PC-3 tumors; Day 25, iv Days 0, 7 and 14, 12-S […]): 443.6 mm^3
Median Tumor Volume (PC-3 tumors; Day 29, iv Days 0, 7 and 14, 12-S […]): 523.4 mm^3
Median Tumor Volume (PC-3 tumors; Day 32, iv Days 0, 7 and 14, 12-S […]): 652.6 mm^3
Median Tumor Volume (PC-3 tumors; Day 35, iv Days 0, 7 and 14, 12-S […]): 689.7 mm^3
Median Tumor Volume (PC-3 tumors; Day 37, iv Days 0, 7 and 14, 12-S […]): 692.2 mm^3
Median Tumor Volume (PC-3 tumors; Day 39, iv Days 0, 7 and 14, 12-S […]): 726.9 mm^3
Median Tumor Volume (PC-3 tumors; Day 42, iv Days 0, 7 and 14, 12-S […]): 823.7 mm^3
Median Tumor Volume (PC-3 tumors; Day 44, iv Days 0, 7 and 14, 12-S […]): 864.2 mm^3
Median Tumor Volume (PC-3 tumors; Day 46, iv Days 0, 7 and 14, 12-S […]): 1182.8 mm^3
Median Tumor Volume (PC-3 tumors; Day 49, iv Days 0, 7 and 14, 12-S […]): 1219.2 mm^3
Median Tumor Volume (PC-3 tumors; Day 51, iv Days 0, 7 and 14, 12-S […]): 1331.9 mm^3
Median Tumor Volume (PC-3 tumors; Day 56, iv Days 0, 7 and 14, 12-S […]): 1335.2 mm^3

COc1c(C)cc2c(c1O)[C@@H]1[C@@H]3[C@@H]4SC[C@]5(N[C@H](CO)Cc6c5oc5ccccc65)C(=O)OC[C@@H](c5c6c(c(C)c(OC(C)=O)c54)OCO6)N3[C@@H](C#N)[C@H](C2)N1C [Compound 38-S]
GI50 (MDA-MB-231 cells; Homo sapiens, MDA-MB-231, 72 h): 2.52 nM
CC50 (MDA-MB-231 cells; Homo sapiens, MDA-MB-231, 72 h): 7.8 nM
IC (TGI) (MDA-MB-231 cells; Homo sapiens, MDA-MB-231, 72 h, read-out: TGI): 4.28 nM
GI50 (PSN1 cells; Homo sapiens, PSN1, 72 h, PSN1, 72 hours treatment, SRB): 5.03 nM
CC50 (PSN1 cells; Homo sapiens, PSN1, 72 h): 15.1 nM
IC (TGI) (PSN1 cells; Homo sapiens, PSN1, 72 h, read-out: TGI): 8.18 nM
GI50 (A549 cells; Homo sapiens, A549, 72 h): 8.05 nM
CC50 (A549 cells; Homo sapiens, A549, 72 h): 9.44 nM
IC (TGI) (A549 cells; Homo sapiens, A549, 72 h, read-out: TGI): 8.55 nM
GI50 (HT29 cells; Homo sapiens, HT-29, 72 h): 4.53 nM
CC50 (HT29 cells; Homo sapiens, HT-29, 72 h): > 126 nM
IC (TGI) (HT29 cells; Homo sapiens, HT-29, 72 h, read-out: TGI): 7.05 nM

COc1c(C)cc2c(c1O)[C@@H]1[C@@H]3[C@@H]4SC[C@]5(N[C@@H](CN)Cc6c5oc5ccccc65)C(=O)OC[C@@H](c5c6c(c(C)c(OC(C)=O)c54)OCO6)N3[C@@H](O)[C@H](C2)N1C [Compound 47-R]
Median Tumor Volume (H526 tumors; Table 56, Day 0): 211.5 mm^3
Median Tumor Volume (H526 tumors; Table 56, Day 2): 367.9 mm^3
Median Tumor Volume (H526 tumors; Table 56, Day 4): 583.7 mm^3
Median Tumor Volume (H526 tumors; Table 56, Day 7): 941.7 mm^3
Median Tumor Volume (H526 tumors; Table 56, Day 9): 1305.2 mm^3
Median Tumor Volume (H526 tumors; Table 56, Day 11): 1484.7 mm^3
Median Tumor Volume (H526 tumors; Table 56, Day 14): 2025.0 mm^3
CC50 (MDA-MB-231 cells; Homo sapiens, MDA-MB-231, 72 h): 2.55 nM
CC50 (PSN1 cells; Homo sapiens, PSN1, 72 h): 3.31 nM
CC50 (HT29 cells; Homo sapiens, HT-29, 72 h): > 127 nM
Median Tumor Volume (H82 tumors; Table 57, Day 0): 169.0 mm^3
Median Tumor Volume (H82 tumors; Table 57, Day 2): 371.6 mm^3
Median Tumor Volume (H82 tumors; Table 57, Day 5): 888.8 mm^3
Median Tumor Volume (H82 tumors; Table 57, Day 7): 1314.2 mm^3
Median Tumor Volume (H82 tumors; Table 57, Day 9): 1811.0 mm^3
Median Tumor Volume (H82 tumors; Table 57, Day 12): 2055.4 mm^3

COc1c(C)cc2c(c1O)[C@@H]1[C@@H]3[C@@H]4SC[C@]5(N[C@H](CN)Cc6c5oc5ccccc65)C(=O)OC[C@@H](c5c6c(c(C)c(OC(C)=O)c54)OCO6)N3[C@@H](O)[C@H](C2)N1C [Compound 47-S]
CC50 (MDA-MB-231 cells; Homo sapiens, MDA-MB-231, 72 h): 16.6 nM
CC50 (PSN1 cells; Homo sapiens, PSN1, 72 h): 12.7 nM
CC50 (A549 cells; Homo sapiens, A549, 72 h): > 127 nM
CC50 (HT29 cells; Homo sapiens, HT-29, 72 h): > 127 nM

COc1ccc2[nH]c3c(c2c1)CCNC31CSC2c3c(OC(C)=O)c(C)c4c(c3C(COC1=O)N1C(C#N)C3Cc5cc(C)c(OC)c(O)c5C(C21)N3C)OCO4 (centres unmarked) [E]
GI50 (MDA-MB-231 cells; [1]): 2.27 nM
TGI (MDA-MB-231 cells; [1]): 3.78E−09 Molar
CC50 (MDA-MB-231 cells; [1]): 7.43 nM
GI50 (PSN1 cells; PSN1, 72 hours treatment, SRB): 2.77 nM
TGI (PSN1 cells; PSN1, 72 hours treatment, SRB): 4.53E−09 Molar
CC50 (PSN1 cells; PSN1, 72 hours treatment, SRB): 8.94 nM
GI50 (A549 cells; A549, 72 hours treatment, SRB): 3.28 nM
TGI (A549 cells; A549, 72 hours treatment, SRB): 3.40E−09 Molar
CC50 (A549 cells; A549, 72 hours treatment, SRB): 4.41 nM
GI50 (HT29 cells; HT29, 72 hours treatment, SRB): 3.15 nM
TGI (HT29 cells; HT29, 72 hours treatment, SRB): 3.40E−09 Molar
CC50 (HT29 cells; HT29, 72 hours treatment, SRB): > 126 nM
